Entries after “also recorded” stand apart in the source; their conditions may differ.
What was measured:
[1] = test system: CD68+ macrophages in MDA-MB-231 xenografts; test: Ex vivo fluorescence microscopy of MDA-MB-231 xenografts; format: in vivo, mice; conditions: 24 hours post-injection
Experimental: FIG. 6 is a series of photomicrographs of ex vivo fluorescence microscopy of DPA-713-IRDye680LT in MDA-MB-231 xenografts at 24 hours post-injection.
Ex vivo DPA-713-IRDye680LT microscopy. The mice used in the in vivo NIRF studies (PC-3 analog xenografts and MDA-MB-231 analog xenografts) were sacrificed at the end of their studies and their tumors were collected and frozen on dry ice for cryosectioning to 20 microns on charged glass slides (VWR). The sections were then probed with both anti-TSPO Ab (Novus Biologicals NBP1-45769, 1:70) labeled directly with Lissamine sulfonyl chloride (Aldrich) according to the known method and anti-CD68 Ab (Abcam ab53444, 1:40) and lastly with Hoechst 33342 (Invitrogen, 1 ng/mL). Both antibodies were added simultaneously in a 10% FBS in PBS solution applied directly to the freshly thawed sections and allowed to sit at room temperature for 1 hour. The sections were washed twice at room temperature for 5 minutes each with PBS prior to the addition of sheep-anti-rat-FITC (Abcam ab6848-1, 1:250) in PBS at room temperature for 30 minutes. The secondary antibody solution was removed and the slides were bathed in Hoechst solution (PBS) for 1.5 minutes at room temperature before being washed twice as before with PBS. […] All images are recorded and processed using Nikon Imaging Software Elements. […]

[2] = test system: CD68+ macrophages in PC-3 PIP and PC-3 flu xenografts; test: Ex vivo fluorescence microscopy of PC-3 PIP and PC-3 flu xenografts; format: in vivo, mice
Experimental: FIG. 8 is a series of photomicrographs showing ex vivo fluorescence microscopy of DPA-713-IRDye680LT in PC-3 PIP and PC-3 flu xenografts at 24 hours post-injection. […] A & B. PIP tumor DPA-713-IRDye680LT only; C.
Ex vivo DPA-713-IRDye680LT microscopy. The mice used in the in vivo NIRF studies (PC-3 analog xenografts and MDA-MB-231 analog xenografts) were sacrificed at the end of their studies and their tumors were collected and frozen on dry ice for cryosectioning to 20 microns on charged glass slides (VWR). The sections were then probed with both anti-TSPO Ab (Novus Biologicals NBP1-45769, 1:70) labeled directly with Lissamine sulfonyl chloride (Aldrich) according to the known method and anti-CD68 Ab (Abcam ab53444, 1:40) and lastly with Hoechst 33342 (Invitrogen, 1 ng/mL). Both antibodies were added simultaneously in a 10% FBS in PBS solution applied directly to the freshly thawed sections and allowed to sit at room temperature for 1 hour. The sections were washed twice at room temperature for 5 minutes each with PBS prior to the addition of sheep-anti-rat-FITC (Abcam ab6848-1, 1:250) in PBS at room temperature for 30 minutes. The secondary antibody solution was removed and the slides were bathed in Hoechst solution (PBS) for 1.5 minutes at room temperature before being washed twice as before with PBS. The slides were then mounted in Dako Cytomation aqueous mounting media with a glass coverslip and viewed 30 minutes later using a Nikon 80i upright epifluorescence microscope equipped with a Nikon DS-QilMc darkfield CCD camera and excited by a Nikon Intensilight C-HGFI lamp. All images are recorded and processed using Nikon Imaging Software Elements.
FIG. 9 depicts a series of NIRF image showing in vivo, ex vivo and in vitro binding of DPA-713-IRDye800CW to androgen sensitive (TSPO−) LNCaP (9E), androgen insensitive (TSPO+) PC-3 prostate xenografts and TSPO+ subcutaneous and orthotopic U87 GBM xenografts.

[3] = test system: LPS-stimulated J774 macrophages (TSPO); test: In vitro J774 murine macrophage uptake studies (fluorescence microscopy, with or without blocking); format: cell-based
Experimental: FIG. 4 is a series of photomicrographs (A-I) of J774 macrophages that were cultured in 8 well chamber slides to 80% confluence. LPS was then added to each well for 24 hours to stimulate the cells. […] The cells were returned to the incubator for either 1 hour or 24 hours. The solutions were then removed, the nuclei were labeled with Hoechst 33342 and the cells were briefly washed before mounting and viewing under a fluorescence microscope.
In vitro J774 murine macrophage uptake studies. The immortalized J774 murine macrophage-like cell line was cultured in RPMI1640+20% FBS+1% penicillin+ streptomycin media in 8-well chamber slides (Fisher Scientific) to approximately 80% confluence. The cells were then stimulated with 1 ng/mL of LPS (Sigma, E. coli 055:B5) for 24 hours prior to addition of the probes of the present invention to 40 nM final concentration. […] The cells were exposed to the fluorescent probes and blocking compounds for either 1 hour or 24 hours prior to exposing to 1 ng/mL of Hoechst 33342 dye (Invitrogen), followed by washing twice briefly with PBS, pH 7.5. The chambers were then removed and the slide mounted with Dako Cytomation aqueous mounting media and a glass coverslip. The cells were visualized using a Nikon 80i upright epifluorescence microscope equipped with a Nikon DS-QilMc darkfield CCD camera and processed using Nikon Image Software on an adjacent workstation. The dyes were excited using either a Nikon Intensilight C-HGFI lamp (IRDye680 and Hoechst) or a Sutter Instruments Co. (Novato, Calif.) LB/LB-30 xenon lamp (IRDye800).
J774 Cell Uptake Studies. J774 macrophages were cultured in 8 well chamber slides to 80% confluence. LPS was then added to each well for 24 hours to stimulate the cells. […] The cells were returned to the incubator for either 1 hour or 24 hours. The solutions were then removed, the nuclei were labeled with Hoechst 33342 and the cells were briefly washed before mounting and viewing under a fluorescence microscope. […] The tracer localization for both analogs is perinuclear and granular in appearance and is consistent with the gross distribution pattern of TSPO expression in other mononuclear cell-derived lines.

CCN(CC)C(=O)Cc1c(-c2ccc(OCCNC(=O)CCCCc3cccc(C(=C\C=C4/N(CCCS(=O)(=O)O)c5ccc6c(S(=O)(=O)O)cc(S(=O)(=O)O)cc6c5C4(C)C)/C=C/C4=[N+](CCCS(=O)(=O)[O-])c5ccc6c(S(=O)(=O)O)cc(S(=O)(=O)O)cc6c5C4(C)C)c3)cc2)nn2c(C)cc(C)nc12 [DPA-713-IRDye680LT, 3-(2-((1E,3Z,5Z)-3-(3-(5-(2-(4-(3-(2-(diethylamino)-2-oxoethyl)-5,7-dimethylpyrazolo[1,5-a]pyrimidin-2-yl)phenoxy)ethylamino)-5-oxopentyl)phenyl)-5-(1,1-dimethyl-6,8-disulfo-3-(3-sulfopropyl)-1Hbenzo[e]indol-2(3H)-ylidene)penta-1,3-dienyl)-1,1-dimethyl-6,8-disulfo-1H-benzo[e]indolium-3-yl)propane-1-sulfonate]
Cell-specific localization of probe in xenograft sections [1]: selectively retained by CD68-expressing macrophages; also recorded: sequestered within CD68+ macrophages | Cell-specific accumulation of probe in prostate tumor xenografts ([2]; 24 hours of in vivo biodistribution): accumulated specifically within CD68+ macrophages | Probe accumulation, PC-3 PIP compared with PC-3 flu xenografts ([2]; 24 hours post-injection): PC-3 PIPs accumulate more | Blocking of probe accumulation by unlabeled DPA-713 ([2]; co-injection with 20 mg/kg unlabeled DPA-713, 24 hours post-injection): accumulation is blocked | Blocking of tracer uptake by (R,S)-PK11195 ([3]; 40 nM tracer + 1 μM (R,S)-PK11195, 24 hours): no longer blocked | Blocking of tracer uptake by (R,S)-PK11195 ([3]; 40 nM tracer + 1 μM unlabeled (R,S)-PK11195, 1 hour): widespread although incomplete blocking | Blocking of tracer uptake by unlabeled DPA-713 ([3]; 40 nM tracer + 1 μM unlabeled DPA-713, 1 hour): partial but incomplete blocking

Reference: US9498546B2, “Synthesis and application of novel imaging agents conjugated to DPA 713 analogs for imaging inflammation” (THE JOHNS HOPKINS UNIVERSITY, priority 2012, dated 2016)
